Results taken from patent US20170290814A1, “METHODS OF TREATMENT OF CHOLESTASIS AND FIBROSIS” (GENFIT, priority 2016, published 2017).

Tests used:
[1] = tested on: TGFβ1-induced expression of α-SMA protein in NHLF; experiment: α-SMA ELISA in TGFβ1-activated normal human lung fibroblasts; format: cell-based; conditions: TGFβ1 1 ng/ml, 48 h
Method: Serum-deprived NHLF were preincubated for 1 hour with RM-5061 before the activation with the profibrogenic cytokine TGFβ1 (1 ng/ml). After 48 hours of incubation, the expression of α-SMA was measured by ELISA. The obtained values were transformed into percentage inhibition over TGFβ1 control. Data are presented as mean (quadruplicates)±standard error of the mean (SEM). Statistical analyses were performed by kruskal-Wallis test followed by Dunn's multiple comparison tests, using GraphPad Prism 5.02 software. [*: p<0.05; **: p<0.01; ***: p<0.001 (comparison versus TGFβ1 1 ng/mL group)]. The curve fitting and the calculation of half maximal inhibitory concentration (IC50) were performed with XLFit software 5.3.1.3.
(§1) Cpd.5 was added to serum-deprived lung fibroblasts (NHLF) 1 hour before the activation with TGFβ1 (1 ng/ml). After 48 hours of incubation, the expression of α-SMA was measured by ELISA. The obtained values were transformed into percentage inhibition over TGFβ1 control. Data are presented as mean (triplicates)±standard deviation (SD). Statistical analyses were performed by one-way ANOVA followed by Bonferroni post-hoc tests, using Sigma Plot 11.0 software. [*: p<0.05; **: p<0.01; ***: p<0.001 (comparison versus TGFβ1 1 ng/mL group)].
The Normal Human Lung Fibroblasts (NHLF) (Lonza) were cultured in Fibroblast Basal Medium (FBM) (Lonza cat #CC-3131) that was supplemented with FGM-2 SingleQuots™ Kit (Lonza cat #CC-3132). The complete medium contains 2% fetal bovine serum. For the activation experiments with TGFβ1, the NHLF were plated at a density of 5×10^3 cells per well in 96-well plates. The next day, cell-culture medium was removed, and cells were washed with PBS (Invitrogen cat #14190). NHLF were deprived for 24 hours in serum-free, insulin-free and rhFGF-B-free medium. […]
(§2) The level of α-SMA was measured using a Sandwich ELISA. […]

[2] = tested on: TGFβ1-induced expression of α-SMA protein in human intestinal fibroblasts (InMyoFib); experiment: α-SMA ELISA in TGFβ1-activated human intestinal myofibroblasts; format: cell-based; conditions: TGFβ1 3 ng/ml, 48 h
Method: as §1, with “serum-deprived intestinal” for “serum-deprived lung”, “fibroblasts (InMyoFib)” for “fibroblasts (NHLF)”, “TGFβ1 (3” for “TGFβ1 (1”, “TGFβ1 3” for “TGFβ1 1”
The Human Intestinal Myofibroblast (InMyoFib) (Lonza) were cultured in Smooth Muscle Cell Basal Medium (SmBM-2 TM) (Lonza cat #CC-3181) that was supplemented with SmGMTM-2 BulletKit TM (Lonza cat #CC-4149). The complete medium contains 5% fetal bovine serum. For the activation experiments with TGFβ1, the inMyoFib were plated at a density of 10×10^3 cells per well in 96-well plates. The next day, cell-culture medium was removed, and cells were washed with PBS (Invitrogen cat #14190). InMyoFib were deprived for 24 hours in serum-free, insulin-free and rhFGF-B-free medium. […]
as §2

Structure (SMILES)	effect on TGFβ1-induced α-SMA in NHLF [1]	effect on TGFβ1-induced α-SMA in human intestinal fibroblasts [2]	IC50 α-SMA in NHLF ([1]; compared with IC50 in human HSC)
[2H]C([2H])([2H])C(=O)Oc1ccccc1C(=O)Nc1ncc([N+](=O)[O-])s1 [Cpd.5, 2-[(5-nitro-1,3-thiazol-2-yl)carbamoyl]phenyl (d3)ethanoate]	inhibits	inhibits	
CC(C)(C)[C@H](N)C(=O)Oc1ccccc1C(=O)Nc1ncc([N+](=O)[O-])s1 [RM-5061, (S)-2-(5-nitrothiazol-2-ylcarbamoyl)phenyl 2-amino-3,3-dimethylbutanoate]	inhibits		comparable IC50
